pKd, pKi: −log10 of the molar value. Starred links: 1 amine or outer side, 2 acyl side, 3 side chain; linkers in the order of their positions; H or OH if unused. Non-standard residues stand in square brackets, D forms with d. Residues, ends and D or L forms follow the SMILES beside them. *: point of attachment. Hexanoyl(5S-NH,4S-OH,6-Ph) = O=C(CC[C@H](O)[C@H](Cc1ccccc1)N[*:1])[*:2]; X2 = C[C@H](C[C@H](O)[C@H](Cc1ccccc1)N[*:1])C(=O)[*:2]; X3 = Nc1ccc2c(c1)Oc1ccccc1C21OC(=O)c2cc(C(=O)*)ccc21; X1 = CC(C)C[C@H](N[*:1])[C@@H](O)CCC(=O)[*:2]
Legend:
Asp2-Fc enzyme [1] = molecular target: T1, Asp2-Fc enzyme (Homo sapiens, UniProt P56817); experiment: Fluorescence Resonance Energy Transfer (FRET) cleavage assay for Asp2; format: biochemical; details: 0.5 uM fluorescent Swedish variant APP beta-site peptide substrate, 25 nM enzyme, pH 3.8
T1 construct: A cDNA fragment encoding Asp 2, amino acids 1 to 460; made in house; host or cells: CHO E1A (derived from DG-44), secreted, purified on Protein A
Protocol: Preparation of Asp 2—Fc Fusion Protein (Asp 2(1-460)-Fc)
A cDNA fragment encoding Asp 2, amino acids 1 to 460 (EP855444 but with 130 Glu->Val), was subcloned to create a fusion protein with human immunoglobulin, residues 99-330 of IgGI, and cloned into the mammalian expression vector pCDN (Aiyar et al). The plasmid was linearized by digestion with Not 1 (15 ug DNA, 37′C, overnight), sterially precipitated and resuspended into 50 ul 1 X TE buffer (10 mM Tris, 1 mM EDTA, pH 7.5). […]
A peptide (X) based on the sequence of the Swedish variant APP beta-site sequence has been doubly labelled for use in a FRET assay. […] This would allow cleavage of the intervening peptide sequence by Asp2 to be monitored by energy transfer between the two fluorescent groups.
The fluorescent peptide substrate (0.5 uM) was incubated with Asp2-Fc enzyme, prepared as described above, in a buffer containing 50 mM sodium acetate, 20 mM sodium chloride, 5% glycerol, 0.1% CHAPS (3-[(3-Cholamidopropyl) dimethylammonio]-1-propane-sulphonate), pH 3.8). The assays were started by addition of enzyme (25 nM final concentration) and cleavage monitored on a fluorescent platereader with 485 nm excitation, 538 nm emission. […]
This assay was used to determine IC50 and Ki values for compounds of interest. […] Asp 2 Fluorescence Polarisation Assay.

Asp2-Fc enzyme [2] = molecular target: T1, Asp2-Fc enzyme; experiment: Asp 2 fluorescence polarisation assay, Kd of labelled ligand; details: ligand 1-100 nM, enzyme from 100 nM down in twofold dilutions, pH 4.0, 15 min equilibration, anisotropy; read-out: Kd for the tight binding interaction
Protocol: A competition assay has also been designed to identify compounds acting at the Asp2 active site. The hydroxyethylene inhibitor, (I), has been modified by addition of 5-, 6-rhodamine green to the free N-terminal amine of the compound to create labelled ligand (III). [drawing 4] The resulting compound was tested experimentally as follows to determine the Kd with Asp2-Fc enzyme, prepared as above.
A three dimensional analysis varying enzyme and compound (III) was performed. Ligand concentration range was 1, 3, 10, 30 and 100 nM. Enzyme concentration range was from 100 nM down in serial twofold dilutions (11 dilutions+no enzyme control). Ligand of appropriate concentration was prepared in 5% DMSO. The enzyme solutions were prepared in 2 times (×2) assay buffer (where ×1=50 mM sodium acetate, 20 mM sodium chloride, 5% glycerol, 0.1% CHAPS, pH 4.0). 5 ul of the enzyme solution (of varying concentration) was mixed with 5 ul of the ligand (of varying concentration) in a low volume 384 microtitre plate. The samples were allowed to equilibrate for 15 min before the fluorescence polarisation was read on an LJL Acquest platereader.
The Anisotropy values were plotted and the Kd for the tight binding interaction obtained.

Asp2-Fc enzyme [3] = molecular target: T1, Asp2-Fc enzyme; experiment: Asp 2 fluorescence polarisation competition assay against labelled ligand (III); format: binding
Protocol: Enzyme (at a fixed concentration of 25 nM), ligand (III) (at a fixed concentration of 2.5 nM) and test compound (10 uM down in twofold serial dilutions) were mixed in ×1 assay buffer (50 mM 50 mM sodium acetate, 20 mM sodium chloride, 5% glycerol, 0.1% CHAPS, pH 3.8) in a final assay volume of 10 ul and allowed to equilibrate for 3 hrs. The fluorescence polarisation was then read. The experiment was performed in duplicate.

`CC(C)[C@H](NC(=O)[C@@H](N)CCC(=O)O)C(=O)N[C@@H](CC(N)=O)C(=O)N[C@@H](Cc1ccccc1)[C@@H](O)CCC(=O)N[C@@H](C)C(=O)N[C@@H](CCC(=O)O)C(=O)N[C@@H](Cc1ccccc1)C(=O)O` [(I)] (H-EVN[Hexanoyl(5S-NH,4S-OH,6-Ph)]AEF-OH) gave a pKi (Asp2-Fc enzyme [1]) of 8.11.
`CC(C)[C@H](NC(=O)[C@@H](N)CCC(=O)O)C(=O)N[C@@H](CC(N)=O)C(=O)N[C@@H](Cc1ccccc1)[C@@H](O)C[C@@H](C)C(=O)N[C@@H](C)C(=O)N[C@@H](CCC(=O)O)C(=O)N[C@@H](Cc1ccccc1)C(=O)O` [(II)] (H-EVN[X2]AEF-OH) showed a pKi (Asp2-Fc enzyme [1]) of 8.14.
`CC(C)[C@H](NC(=O)[C@H](CCC(=O)O)NC(=O)c1ccc2c(c1)C(=O)OC21c2ccccc2Oc2cc(N)ccc21)C(=O)N[C@@H](CC(N)=O)C(=O)N[C@@H](Cc1ccccc1)[C@@H](O)CCC(=O)N[C@@H](C)C(=O)N[C@@H](CCC(=O)O)C(=O)N[C@@H](Cc1ccccc1)C(=O)O` (stereo partly drawn) [(III)] (X3-EVN[Hexanoyl(5S-NH,4S-OH,6-Ph)]AEF-OH) was tested, and the pKd (Asp2-Fc enzyme [2]) was 8.91.
With `CC(C)C[C@H](NC(=O)[C@H](C)NC(=O)[C@@H](NC(=O)[C@@H](N)CCC(=O)O)C(C)C)[C@@H](O)CCC(=O)N[C@@H](C)C(=O)N[C@@H](CCC(=O)O)C(=O)N[C@@H](Cc1ccccc1)C(=O)O` [Compound (IV)] (H-EVA[X1]AEF-OH) the pKi (Asp2-Fc enzyme [3]; 25 nM enzyme, 2.5 nM ligand (III), pH 3.8, 3 hrs equilibration, duplicate) was 7.17 and the “displacement of the fluorescent ligand (III)” value (Asp2-Fc enzyme [3]; at the highest concentrations of test compound (10 uM down in twofold serial dilutions)) was “Complete displacement”.
